Reference: patent US20150034084A1, “[…] NITRIC OXIDE FOR TREATING RESPIRATORY DISEASES” (Advanced Inhalation Therapies (AIT) Ltd., priority 2012, published 2015)

Experiments:
S. aureus = details: cited from earlier work
Klebsiella sp.#1 = details: 200 ppm gNO, saline; cited from earlier work
Acinetobacter sp. = details: 200 ppm gNO, saline; cited from earlier work
[1] = rats, gNO concentrations below 200 ppm, 6 hours/day for 28 days; cited from earlier work
[2] = Phase I safety study: inspiratory NO2 level during gNO delivery; set-up: species or system human; details: inspired gas at mouthpiece
Experimental: Subjects were administered gNO through a modified disposable mouthpiece to maximize mixing. Inspiration was spontaneously initiated by the subject from a conventional intermittent positive pressure breathing respirator (Mark-7, Carefusion, USA) in fixed flow mode delivering 48 liters per minute (LPM). Flows of gas were verified with a calibrated mass flow meter (TSI, USA). Gaseous nitric oxide (gNO, obtained at INOmax, Ikaria, USA) at a concentration of 800 ppm delivered at a flow of 12 LPM was titrated into a distal delivery port on the mouth piece connected to the respirator during inspiratory phase only (pressure switch). The Mark 7 respirator was supplied by an air/oxygen blender (Bird Sentry, Carefusion, USA) set to deliver 26% oxygen.
The levels of gNO, NO2, O2 and methemoglobin were monitored during the administration of gNO. The target gas mixture was 160 ppm gNO with a nitrogen dioxide (NO2) level of less than 5 ppm and an oxygen (O2) level ranging from 21% to 25%. Inspiratory NO, NO2 and O2 levels were continuously monitored by sampling from the mouthpiece sample port located about 6 millimeters from the mouth of the subject with an AeroNOx (Pulmonox, AB, Canada) NO, NO2 and O2 electrochemical analyzer. Delivery safety was determined by the number of occasions that NO2 exceeded 5 ppm, gNO exceeding 10% variation and O2 dropping below 20% during gNO administration. […]

[3] = Phase I safety study: hematology, clinical chemistry, coagulation; assay type: in vivo, human
Experimental: (§1) After obtaining informed consent, treatment was initiated within 5 days of enrollment. Subjects were housed in a hospital ward and received 160 ppm gNO for 30 minutes every four hours (Q4h), five times a day, for five consecutive days by inhalation. Subjects returned for follow-up evaluations 3, 7 and 21 days after the final gNO administration. Subject safety was determined by monitoring vital signs, methemoglobin levels, lung function, blood chemistry, hematology, prothrombin time, inflammatory cytokine/chemokines levels and endothelial activation. These parameters were compared to baseline and at various time-points during and after gNO administration.
(§2) Hematological assessment included a complete blood count and differentials (hemoglobin, hematocrit, red blood cell count, white blood cell count, white blood cell differential, and platelet count) were obtained in order to monitor blood chemistry, hematology and inflammation measurements. The blood chemistry profile included serum creatinine, and liver function tests such as aspartate aminotransferase (AST) serum glutamic oxaloacetic transaminase (SGOT), alkaline phosphatase, and gamma-glutamyl transferase (GGT). The effect of gNO on coagulation was determined by the prothrombin time (PT) and its derived measures of prothrombin ratio (PR) and international normalized ratio (INR). Heparinized plasma was collected at baseline and on days 1, 2, 4, and 5 of gNO administration, and on follow-up days 3, 7 and 21 and frozen at −80° C. Plasma cytokine levels were assessed using the human inflammation cytokine bead array kit (BD Bioscience, Canada). Plasma levels of angiopoietin Ang-1 and Ang-2 were determined by ELISA (R&D Systems, USA).

S. aureus (ATCC) = details: 200 ppm gNO, saline; cited from earlier work
[4] = tested on: all microorganisms tested; assay: Bactericidal effect of 200 ppm gNO, whole panel of microbes (average / all tested); assay type: cell-based; details: saline, average over the bacteria of Table 1
Description: A similar procedure was used to determine the time required to induce an effective bactericidal effect with 200 parts per million gNO, a concentration just above the dose used in the dose-ranging study presented hereinabove, on a representative collection of drug resistant gram-positive and gram-negative strains of bacteria associated with clinical infection.
A successful bactericidal effect was defined as a decrease in bacteria greater than 3 log10 CFU/mL. Further, C. albicans, Methicillin Resistant S. aureus (MRSA), a particularly resistant strain of P. aeruginosa from a cystic fibrosis patient, Group B Streptococcus, and M. smegmatis were also included to evaluate if yeasts, a multi-drug resistant strain of bacteria and actinomycetes have a similar response. These bacteria represent a comprehensive variety of drug resistant bacterial pathogens that contribute to both respiratory and wound infections. The results from these studies laid the foundation for use of gNO at a concentration higher than 160 ppm as an antibacterial agent, specifically for use against bacteria associated with clinical infections.
For this study, saline was selected as a suspension media because it would not mask the direct effect of gNO as a bactericidal, whereas fully supplemented growth medium might introduce external variables (e.g., buffer or react with gNO). Other media might also provide metabolites and replenish nutrients that produce enzymes that protect bacteria from oxidative and nitrosative damage, thereby masking the effect of gNO. […] In saline, the colonies were static but remained viable. These conditions are similar to the approach previously used in animal models.
Without exception, every bacteria challenged with 200 ppm gNO had at least a 3 log10 reduction in CFU/mL. […] The latent period was then followed by an abrupt death of all cells; gram negative and gram positive bacteria, antibiotic resistant bacterial strains, yeast and mycobacteria all were susceptible to 200 ppm gNO. […]

Klebsiella sp.#2 = details: 200 ppm gNO, saline; cited from earlier work
inflammatory cytokines = assay: Phase I safety study: plasma cytokines by cytometric bead array; assay type: in vivo, human; details: 160 ppm gNO inhalation
Experimental: as §1, §2
To assess whether gNO inhalation may cause inflammation or endothelial activation cytokines and the vascular endothelium activation factors Ang-1 and Ang-2 were quantified in peripheral plasma at baseline at various time points thereafter.

[5] = tested on: five planktonic species of methicillin resistant S. aureous (MRSA); details: 1,600 ppm hours of gNO; cited from earlier work

**Q.** Which results are given for `[N]=O` [gNO, nitric oxide]?
**A.** survival (downward bactericidal trend towards) (S. aureus; 50-160 ppm gNO, solid media, vs medical air): 5-10%; reduction of colony formation (S. aureus; gNO greater than 120 ppm, agar plates): greater than 90%; time required to achieve the >90% reduction of colony formation (S. aureus; gNO greater than 120 ppm): 8 to 12 h; LD100 (Klebsiella sp.#1): 6 h; Latent Period (Klebsiella sp.#1): 3 h; −2.5 Log10 (Klebsiella sp.#1): 3.5 hours; LD100 (Acinetobacter sp.): 6 h; Latent Period (Acinetobacter sp.): 4 h; −2.5 Log10 (Acinetobacter sp.): 5 hours; deaths [1]: No deaths occurred; highest NO2 level recorded during the treatments ([2]; 160 ppm gNO): 2.8 ppm; mean NO2 level ([2]; 95% confidence level 2.17-2.47 ppm): 2.32 ppm; eosinophil cell numbers, end of study ([3]; baseline 0.15 giga/L, p=0.104): 0.19 giga/L; blood coagulation parameters, clinical chemistry and hematological parameters ([3]; baseline to completion of day 5): no statistically, nor clinically significant changes; neutrophil cell numbers, end of study ([3]; baseline value of zero, p=0.169): 0.01 giga/L; LD100 (S. aureus (ATCC)): 4 h; Latent Period (S. aureus (ATCC)): 3 h; −2.5 Log10 (S. aureus (ATCC)): 3.3 hours; LD100, Average [4]: 4.77 h; Latent Period, Average [4]: 2.77 h; −2.5 Log10, Average [4]: 3.82 hours; LD100 (Klebsiella sp.#2): 5 h; Latent Period (Klebsiella sp.#2): 2 h; −2.5 Log10 (Klebsiella sp.#2): 4.1 hours; plasma IL-1b level versus baseline (inflammatory cytokines): unaffected; plasma IL-6 level versus baseline (inflammatory cytokines): unaffected; plasma IL-8 level versus baseline (inflammatory cytokines): unaffected; plasma IL-10 level versus baseline (inflammatory cytokines): unaffected; plasma IL-12p70 level versus baseline (inflammatory cytokines): unaffected; plasma TNF level versus baseline (inflammatory cytokines): unaffected; population of planktonic MRSA strains [5]: A reduction in the population of all five MRSA planktonic strains was observed
